Assay results from patent US20260335294A1, “TREATING CONGENITAL DISORDERS OF GLYCOSYLATION” (Mayo Foundation for Medical Education and Research, priority 2022, published 2026).
Entries after “also recorded” stand apart in the source; their conditions may differ.

System: PMM2-CDG and healthy fibroblasts
Experiment: Metabolomic profiling (LC/MS, GC/MS) of fibroblasts treated with epalrestat
Format: cell-based, human
Protocol: Patient (P1-P6) and control fibroblasts were obtained by a skin punch biopsy. Fibroblasts were maintained in low glucose DMEM (Gibco) supplemented with 10% FBS in an incubator at 37 °C, 5% CO2, no longer than two months or until they reached passage 15 to avoid senescence. Routine mycoplasma testing was performed.
Briefly, 15,000 fibroblasts were plated in 1.5 mL DMEM (Gibco, 5.5 mM glucose, 2 mM glutamine, 10% FBS) per well in two 6-well plates. The medium change was performed on day 2 and day 4. On day 6, the medium was removed, cells were washed with ice-cold 0.9% NaCl (Sigma) (physiological solution) and 250 μL of extraction buffer (80% MeOH, IS) was added to the cells. Next, cells were scraped and the cell extracts transferred to 1.5 mL Eppendorf tubes and placed overnight at −80 °C. Next, samples were centrifuged at 15,000 rpm, 4 °C, 20 minutes. The supernatant was transferred to a vial for direct analysis by LC/MS, while 100 μL of 200 mM NaOH was added to the (protein) pellet. Pellets were incubated at 95 °C for 30 minutes after which they were centrifuged at 5,000 rpm, 4 °C, 10 minutes. Supernatant was used to determine protein concentration by BCA protein assay kit (Pierce).
Fibroblasts were plated in 6-well plates for LC/MS and T75 flasks for GC/MS analysis as described above. After 24 hours, medium was removed and cells washed with PBS. Then, DMEM containing 5.5 mM glucose, 2 mM glutamine, and 10% dialyzed FBS was added. Epalrestat was freshly prepared and fibroblasts were supplemented with 10 μM epalrestat daily. After 48 hours media was changed, and 48 hours after that, metabolites were extracted and measured by both LC/MS and GC/MS. Zebrafish embryos were genotyped at 2 days post fertilization (dpf), and were treated by adding the epalrestat (solubilized in DMSO) directly into the embryo media at 5 dpf. Control embryos were similarly treated with DMSO alone. Embryos were harvested for metabolic analyses 24 hours posttreatment. The final concentration of DMSO was equivalent between control and treatment, never exceeding 0.5%.
An ion-pairing liquid chromatography column (C18) was used to separate 10 μL of sample, after which the metabolites were resolved on a Thermo Fisher Q-Exactive Hybrid Quadrupole-Orbitrap Mass Spectrometer (negative ion mode). The ESI settings were as follows: 50 sheet gas flow rate, auxiliary gas flow rate 15, spray voltage of 4 kV, S-lens RF level of 60, and the capillary temperature at 350 °C. A full scan (resolution 140,000 at 200 m/z, AGC at 3 e6, 512 ms ion fill time, and 70-850 m/z scan range) was performed. The metabolites were identified according to their elution time and m/z ratios by using in-house metabolite standard library and El-Maven v0. 12.0/Polly™ Labeled LC-MS Workflow or Thermo Fisher Xcalibur software. The correction of naturally occurring carbon isotopes was also performed. Relative metabolite abundances were normalized to the internal standard and protein content.
For GC/MS measurements of hexose-P, hexose-bisphosphates, hexose and polyols, fibroblasts were cultured in a similar fashion as for LC/MS with the following adjustments: 1) an appropriate number of fibroblasts was plated in T75 flasks instead of 6-well plates to ensure the optimal amount of metabolite concentration necessary for GC/MS; 2) metabolites were extracted from cells with 2 mL 80% MeOH, IS and the supernatant was transferred to a fresh 2 mL Eppendorf tube. Standards containing metabolites of interest were prepared simultaneously and dried overnight together with cellular extracts by vacuum centrifugation at 4 °C. The following day, 20 μL of methoxyamine (MOX) (Sigma Aldrich) was added to the samples and they were incubated for 90 minutes at 37 °C. Next, 60 μL of N,O-bis(trimethylsilyl)trifluoroacetamide (TMS) (Sigma Aldrich) was added to the samples, which were then incubated at 60 °C for 30 minutes. Samples were kept overnight in a dry and cool place to allow further derivatization with TMS. […]

[1] = 10 μM daily, patient fibroblasts

SMILES: CC(/C=C1\SC(=S)N(CC(=O)O)C1=O)=C\c1ccccc1 [epalrestat]
- CMP-sialic acid abundance (10 μM daily): increased
- UDP-HexNAc abundance (10 μM daily): increased
- UDP-hexose abundance (10 μM daily): increased
- glucose-1-P abundance (10 μM daily): increased
- hexosamine-P abundance (10 μM daily): increased
- hexose-P abundance (10 μM daily): increased
- pentose-P abundance (10 μM daily): increased
- sedoheptulose-7-P abundance (10 μM daily): increased
- Glc-1,6-P2 abundance (10 μM daily, PMM2-CDG fibroblasts): increased; also recorded: significantly increase
- mannitol abundance (10 μM daily, intracellular): reduced in the majority of patient fibroblasts
- sorbitol abundance (10 μM daily, intracellular): significantly reduced; also recorded: significantly decreased
- overall polyol pool (10 μM daily, patient and control cell lines, dialyzed FBS): reduced; also recorded: significantly decreased
- GDP-mannose abundance [1]: increased; also recorded: significantly increase
- man-1-P abundance [1]: increased; also recorded: significantly increase
- mannose-6-P abundance [1]: increased; also recorded: significantly increase
- GDP-mannose levels vs controls (patient fibroblasts, epalrestat alone): never reached the same levels as the ones seen in controls
